According to ChEMBL document CHEMBL1201862, “PubChem BioAssay data set” (2004):
Active and inactive are the calls of the source.

Experiments:
HeLa = experiment: ATP-based viability loss in HeLa cells – cell-based, CellTiter-Glo luminescence, cherry-pick samples, cytotoxicity control for MITF activator project, dose response (AID 540259); assay type: functional; details: Homo sapiens
[1] = biological target: Voltage-gated inwardly rectifying potassium channel KCNH2 (Homo sapiens, UniProt Q12809); details: Potency;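 note: confirmatory quantitative high-throughput screen measuring inhibition of hERG channel activity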
[2] = reduction of Shn3 3'UTR-driven luciferase in osteoblasts – cell-based, Clone20 osteoblasts, firefly luciferase, cherry-picked, dose response (AID 624132); assay type: functional;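 note: firefly luciferase luminescence from reporter carrying the Shn3 3'UTR in osteoblasts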
Vero [3] = experiment: viability of Vero cells under compound – cytotoxicity control for flavivirus capping enzyme inhibitors (AID 588742); assay type: functional; details: Chlorocebus sabaeus
[4] = loss of viability in HepG2 cells – cell-based, CellTiter-Glo, cherry-picked, cytotoxicity control for Shn3 inhibitor project, dose response (AID 624134); assay type: functional
[5] = non-specific 3'UTR reporter inhibition in Clone20-Shn3RL – cell-based, Renilla luciferase, cherry-picked, counter-screen for Shn3 inhibitor project, dose response (AID 624133); assay type: functional
Vero [6] = experiment: cells; assay type: functional; details: Chlorocebus sabaeus
Genome polyprotein = Genome polyprotein (dengue virus type 2, UniProt P29990); experiment: flavivirus cap methylation enzyme inhibition – biochemical, confirmation dose response, primary screen (AID 588689); assay type: functional
[7] = biological target: T1, RNA-binding protein pos-1 (Caenorhabditis elegans, UniProt G5EF15); experiment: disruptors of C. elegans POS-1 RNA interaction – biochemical, fluorescence polarization, dose response (AID 1964);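 note: purified POS-1 fused to maltose binding protein made in E. coli; potency of compounds blocking POS-1 binding to fluorescent RNA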
T1 sequence (G5EF15 whole entry): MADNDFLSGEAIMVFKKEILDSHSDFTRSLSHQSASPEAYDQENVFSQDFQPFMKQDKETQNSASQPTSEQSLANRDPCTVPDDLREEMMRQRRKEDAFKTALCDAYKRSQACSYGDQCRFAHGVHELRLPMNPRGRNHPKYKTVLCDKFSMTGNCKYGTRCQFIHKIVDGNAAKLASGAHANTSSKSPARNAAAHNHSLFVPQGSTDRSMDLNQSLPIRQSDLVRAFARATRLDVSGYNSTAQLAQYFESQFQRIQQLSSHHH

[8] = biological target: T2, Zinc finger protein mex-5 (Caenorhabditis elegans, UniProt Q9XUB2); experiment: potency of MEX-5 RNA-binding blockers – biochemical, C. elegans, fluorescence polarization, dose response (AID 1960)
T2 sequence (Q9XUB2 whole entry): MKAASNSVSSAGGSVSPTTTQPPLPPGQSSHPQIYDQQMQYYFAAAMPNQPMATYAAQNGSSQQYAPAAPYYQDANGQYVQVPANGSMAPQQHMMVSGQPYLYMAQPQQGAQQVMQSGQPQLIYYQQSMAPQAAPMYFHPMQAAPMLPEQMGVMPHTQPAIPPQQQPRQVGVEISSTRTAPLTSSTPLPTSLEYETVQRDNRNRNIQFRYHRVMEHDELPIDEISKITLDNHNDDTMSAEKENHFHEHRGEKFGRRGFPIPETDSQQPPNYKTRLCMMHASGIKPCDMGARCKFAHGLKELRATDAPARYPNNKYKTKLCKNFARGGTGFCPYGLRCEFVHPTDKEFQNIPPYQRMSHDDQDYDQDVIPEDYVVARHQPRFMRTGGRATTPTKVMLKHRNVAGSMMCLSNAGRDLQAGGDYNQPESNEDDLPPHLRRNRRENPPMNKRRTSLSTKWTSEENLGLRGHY

[9] = biological target: Glucose-6-phosphate 1-dehydrogenase (Homo sapiens, UniProt P11413); experiment: inhibition of Homo sapiens G6PD, dose series – biochemical, fluorescence, selectivity assay for P. falciparum G6PD inhibitor project, dose response (AID 504792); assay type: functional
[10] = biological target: T3, Endoribonuclease toxin MazF (Escherichia coli K-12, UniProt P0AE70); experiment: activation of MazEF endoribonuclease cleavage – biochemical, fluorescence, single-stranded RNA substrate, uHTS hits, dose response (AID 588481); assay type: functional
T3 sequence (P0AE70 whole entry): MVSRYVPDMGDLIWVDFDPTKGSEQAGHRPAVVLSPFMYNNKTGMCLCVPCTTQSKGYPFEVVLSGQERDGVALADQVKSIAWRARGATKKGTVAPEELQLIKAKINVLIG

[11] = biological target: T3, Endoribonuclease toxin MazF; experiment: substrate-only fluorescence increase artefacts – biochemical, single-stranded RNase substrate, counter-screen for MazEF activator project, dose response (AID 588502); assay type: functional
A-375 = experiment: MITF: Counter assay: A375 proliferation Measured in Cell-Based System Using Plate Reader - 2084-03_Inhibitor_Dose_DryPowder_Activity. [Related pubchem assays (depositor defined):AID488944]; assay type: functional; details: Homo sapiens
[12] = biological target: Neurotensin receptor type 1 (Homo sapiens, UniProt P30989); assay type: functional;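 note: Image-based confirmatory dose-response assay measuring agonist activity at NTR1; NTR1-expressing U2OS osteosarcoma cells imaged for beta-arrestin GFP spot formation; agonist potency where compounds increase beta-arrestin recruitment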
HEK293 = experiment: EBV LMP1 TES2 canonical NF-kB signalling blockers – cell-based, HEK293, luciferase, cherry-pick, dose response (AID 588343); assay type: functional; details: Homo sapiens
[13] = system: Streptococcus sp. 'group A'; experiment: Streptococcus pyogenes SK(-)GAS viability under kanamycin – luminescence, BacTiterGlo, confirmation, counter-screen for streptokinase expression inhibitor project, dose response (AID 1900); assay type: functional, organism-based
Streptococcus = experiment: GAS UMAA2166 growth inhibition – luminescence, BacTiterGlo, counter-screen for streptokinase expression inhibitor project, dose response (AID 1915); assay type: functional, organism-based;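 note: potency for reduction of bacterial viability or growth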
Streptokinase A = biological target: T4, Streptokinase A (Streptococcus pyogenes serotype M1, UniProt P10520); experiment: viability-normalized secreted streptokinase activity reduction – plasminogen activation absorbance, OD405, dose response (AID 1914); assay type: functional, Streptococcus pyogenes M1 GAS;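 note: secreted streptokinase activity via plasminogen activation per viability signal from cell pellet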
T4 sequence (P10520 whole entry): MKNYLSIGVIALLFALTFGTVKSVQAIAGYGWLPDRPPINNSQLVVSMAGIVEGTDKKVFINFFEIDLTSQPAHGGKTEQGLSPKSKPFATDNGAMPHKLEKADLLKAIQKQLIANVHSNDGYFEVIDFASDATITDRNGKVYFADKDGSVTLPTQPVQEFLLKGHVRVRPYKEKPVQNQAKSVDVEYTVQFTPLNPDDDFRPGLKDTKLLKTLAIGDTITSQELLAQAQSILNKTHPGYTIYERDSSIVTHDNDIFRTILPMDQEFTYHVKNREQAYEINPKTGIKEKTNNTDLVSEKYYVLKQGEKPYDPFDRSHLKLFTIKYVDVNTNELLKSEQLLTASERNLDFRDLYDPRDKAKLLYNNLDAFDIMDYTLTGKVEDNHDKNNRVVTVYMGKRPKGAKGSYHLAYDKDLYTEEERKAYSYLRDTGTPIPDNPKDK

[14] = microbe, parasite or virus in culture; assay type: functional; details: Mycobacterium tuberculosis

Sequence of Glucose-6-phosphate 1-dehydrogenase (P11413 whole entry): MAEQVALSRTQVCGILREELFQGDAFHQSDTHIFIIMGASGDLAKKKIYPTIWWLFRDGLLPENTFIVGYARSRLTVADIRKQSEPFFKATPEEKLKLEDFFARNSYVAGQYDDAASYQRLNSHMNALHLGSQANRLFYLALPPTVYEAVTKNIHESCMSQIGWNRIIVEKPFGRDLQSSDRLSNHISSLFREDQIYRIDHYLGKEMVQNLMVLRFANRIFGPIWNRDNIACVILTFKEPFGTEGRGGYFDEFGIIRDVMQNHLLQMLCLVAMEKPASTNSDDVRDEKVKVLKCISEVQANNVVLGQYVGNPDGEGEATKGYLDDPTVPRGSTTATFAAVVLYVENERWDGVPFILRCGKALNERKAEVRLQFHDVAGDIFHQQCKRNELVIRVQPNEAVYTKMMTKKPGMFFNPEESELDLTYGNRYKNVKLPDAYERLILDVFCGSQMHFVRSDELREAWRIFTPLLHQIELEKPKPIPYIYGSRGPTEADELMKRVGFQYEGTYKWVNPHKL
Sequence of Voltage-gated inwardly rectifying potassium channel KCNH2 (Q12809 whole entry): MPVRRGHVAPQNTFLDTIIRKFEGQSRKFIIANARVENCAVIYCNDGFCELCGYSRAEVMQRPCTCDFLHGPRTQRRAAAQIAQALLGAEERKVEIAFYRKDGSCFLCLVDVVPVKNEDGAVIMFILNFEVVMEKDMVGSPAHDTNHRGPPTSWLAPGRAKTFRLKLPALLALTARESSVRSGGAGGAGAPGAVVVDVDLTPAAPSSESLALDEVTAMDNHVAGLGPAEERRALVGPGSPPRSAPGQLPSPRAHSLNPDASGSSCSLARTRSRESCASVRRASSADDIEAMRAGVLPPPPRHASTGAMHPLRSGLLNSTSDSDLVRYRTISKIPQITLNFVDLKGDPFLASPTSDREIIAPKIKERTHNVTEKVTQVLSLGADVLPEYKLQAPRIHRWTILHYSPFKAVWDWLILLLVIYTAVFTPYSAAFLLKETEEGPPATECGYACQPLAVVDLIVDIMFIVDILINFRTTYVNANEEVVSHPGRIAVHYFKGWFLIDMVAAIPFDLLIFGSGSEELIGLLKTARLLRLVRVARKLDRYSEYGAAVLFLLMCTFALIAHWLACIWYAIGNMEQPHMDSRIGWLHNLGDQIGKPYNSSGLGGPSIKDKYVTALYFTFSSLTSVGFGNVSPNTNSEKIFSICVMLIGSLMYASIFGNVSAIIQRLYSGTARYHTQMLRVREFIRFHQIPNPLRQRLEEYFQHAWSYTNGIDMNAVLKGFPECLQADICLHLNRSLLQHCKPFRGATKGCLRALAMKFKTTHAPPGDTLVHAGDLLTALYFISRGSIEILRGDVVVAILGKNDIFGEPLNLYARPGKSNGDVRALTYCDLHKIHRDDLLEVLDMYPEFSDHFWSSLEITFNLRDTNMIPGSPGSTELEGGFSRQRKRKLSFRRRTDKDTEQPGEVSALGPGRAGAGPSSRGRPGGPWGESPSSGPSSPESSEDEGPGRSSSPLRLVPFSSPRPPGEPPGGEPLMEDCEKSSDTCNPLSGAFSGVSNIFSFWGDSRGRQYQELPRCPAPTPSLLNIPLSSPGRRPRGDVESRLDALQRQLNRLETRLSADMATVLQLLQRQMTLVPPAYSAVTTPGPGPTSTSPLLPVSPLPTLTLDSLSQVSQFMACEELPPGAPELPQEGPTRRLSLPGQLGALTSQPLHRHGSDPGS
Sequence of Neurotensin receptor type 1 (P30989 whole entry): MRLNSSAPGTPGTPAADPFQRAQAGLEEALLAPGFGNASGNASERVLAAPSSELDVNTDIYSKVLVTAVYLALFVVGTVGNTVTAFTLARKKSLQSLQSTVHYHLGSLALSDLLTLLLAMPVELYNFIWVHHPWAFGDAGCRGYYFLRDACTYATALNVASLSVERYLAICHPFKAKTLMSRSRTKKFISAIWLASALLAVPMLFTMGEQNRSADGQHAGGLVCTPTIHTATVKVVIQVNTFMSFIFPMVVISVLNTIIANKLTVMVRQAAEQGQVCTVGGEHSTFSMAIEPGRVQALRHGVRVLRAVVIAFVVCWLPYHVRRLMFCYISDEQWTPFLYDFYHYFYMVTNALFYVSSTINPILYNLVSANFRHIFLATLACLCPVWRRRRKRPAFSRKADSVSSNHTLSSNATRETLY
Sequence of Genome polyprotein (P29990 2492-3391 limits assumed): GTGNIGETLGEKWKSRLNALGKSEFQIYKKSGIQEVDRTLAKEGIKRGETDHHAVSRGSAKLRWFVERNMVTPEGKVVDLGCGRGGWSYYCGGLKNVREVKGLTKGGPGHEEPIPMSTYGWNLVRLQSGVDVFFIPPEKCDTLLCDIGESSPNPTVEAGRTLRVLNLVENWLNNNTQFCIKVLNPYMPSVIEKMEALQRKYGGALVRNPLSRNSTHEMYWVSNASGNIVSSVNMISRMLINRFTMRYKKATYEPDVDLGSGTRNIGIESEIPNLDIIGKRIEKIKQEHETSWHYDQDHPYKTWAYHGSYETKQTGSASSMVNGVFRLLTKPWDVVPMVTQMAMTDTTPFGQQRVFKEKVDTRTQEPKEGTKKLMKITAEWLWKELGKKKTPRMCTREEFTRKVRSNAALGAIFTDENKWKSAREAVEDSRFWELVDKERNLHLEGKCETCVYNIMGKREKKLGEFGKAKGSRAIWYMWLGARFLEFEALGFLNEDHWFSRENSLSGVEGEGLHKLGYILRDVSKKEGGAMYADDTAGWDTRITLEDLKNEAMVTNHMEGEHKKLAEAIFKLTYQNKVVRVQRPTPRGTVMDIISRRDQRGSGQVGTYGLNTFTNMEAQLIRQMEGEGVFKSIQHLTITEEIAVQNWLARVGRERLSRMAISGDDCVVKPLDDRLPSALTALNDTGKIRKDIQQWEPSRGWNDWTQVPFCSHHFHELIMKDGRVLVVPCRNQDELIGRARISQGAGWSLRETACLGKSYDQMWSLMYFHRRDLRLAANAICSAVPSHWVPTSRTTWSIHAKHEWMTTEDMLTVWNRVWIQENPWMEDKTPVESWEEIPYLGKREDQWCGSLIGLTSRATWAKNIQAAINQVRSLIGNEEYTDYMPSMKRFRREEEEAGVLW

COc1ccc(-c2cc(=O)c3cc(C)ccc3[nH]2)cc1
AC50 (HeLa): 79.9 µM (active)

CCN(Cc1ccccc1)c1ccccc1
AC50 [1]: 35.5 µM (inconclusive)

CCOc1cc(/C=C2/C(=O)ON=C2C)ccc1OCc1ccccc1F
AC50 [2]: 6.95 µM (active) | CC50 (Vero [3]): > 40 µM (active) | AC50 [4]: 69.3 µM (active) | AC50 [5]: 28.2 µM (active) | CC50 (Vero [6]): > 25 µM (active) | IC50 (Genome polyprotein): 41.5 µM (active) | EC50 [7]: 53.5 µM (active) | EC50 [8]: 37.3 µM (inconclusive)

COc1cc(NCc2ccccc2O)c2ncccc2c1
IC50 [9]: > 80 µM (inactive)

CN(CC(=O)Nc1ccccc1Cl)CC(=O)c1c(N)n(Cc2ccccc2)c(=O)n(C)c1=O
EC50 [10]: > 99 µM (inactive) | EC50 [11]: > 99 µM (inactive)

CC(C)=NOc1cc(NC(=O)CCl)cc([N+](=O)[O-])c1
AC50 (A-375): 15.3 µM (active)

Cc1nc2cc(NCc3nc4ccccc4n3Cc3ccccc3)ccc2n1C
CC50 (Vero [3]): > 40 µM (active)

CCN(CC)C(=O)Oc1ccc2c(=O)c(-c3ccc(OC)cc3)coc2c1
AC50 (HeLa): 287 µM (active)

CCC(Cl)CC(Cl)C(Cl)C(Cl)C(Cl)C(C)Cl (centres undefined)
AC50 [1]: 11.2 µM (inconclusive)

Cc1ccc(C(=O)/C=C/C(=O)c2ccc(C)cc2)cc1
EC50 [12]: 14.9 µM (active) | AC50 (HEK293): 8.72 µM (active) | EC50 [13]: 3.45 µM (active) | EC50 (Streptococcus): 9.38 µM (active) | EC50 (Streptokinase A): 0.653 µM (active) | IC50 [9]: > 80 µM (inactive) | CC50 [14]: 31.4 µM (active)
